Article PMC12596731, “Cys–Lys stapling for unprotected peptides via tunable linkers” (National Science Review, 2025)

Experiment: Cys-Lys stapling of unprotected peptides with unsymmetrical linker (1.5 equiv): Cys thiol displaces phthalimide from N-thiophthalimide (disulfide, ~1 min), then ring closure by Lys amine attack on pentafluorophenyl ester with DIPEA (4 equiv)
Conditions: the molecule shown is the open-chain precursor, CH3CN:H2O 3:1, 25.0 °C, 0.167 h

`CC(=O)N[C@H](C(=O)N[C@@H](CO)C(=O)N[C@@H](Cc1ccccc1)C(=O)N[C@@H](CCCCN)C(=O)N[C@@H](CCC(N)=O)C(=O)N[C@@H](Cc1ccc(O)cc1)C(=O)N[C@@H](Cc1c[nH]c2ccccc12)C(=O)N[C@@H](CSS/C(=C/Cl)CCCCCCCCC(=O)Oc1c(F)c(F)c(F)c(F)c1F)C(=O)N[C@@H](CC(C)C)C(=O)N[C@@H](CC(C)C)C(=O)N[C@@H](CO)C(=O)N[C@@H](CCCNC(=N)N)C(N)=O)[C@@H](C)O` gave a ring closure, isolated yield (31-membered ring) of 68%.
With `CC(=O)N[C@H](C(=O)N[C@@H](CO)C(=O)N[C@@H](Cc1ccccc1)C(=O)N[C@@H](CCCCN)C(=O)N[C@@H](CCC(N)=O)C(=O)N[C@@H](Cc1ccc(O)cc1)C(=O)N[C@@H](Cc1c[nH]c2ccccc12)C(=O)N[C@@H](CSS/C(=C/Cl)CCC(=O)Oc1c(F)c(F)c(F)c(F)c1F)C(=O)N[C@@H](CC(C)C)C(=O)N[C@@H](CC(C)C)C(=O)N[C@@H](CO)C(=O)N[C@@H](CCCNC(=N)N)C(N)=O)[C@@H](C)O` the ring closure, isolated yield (25-membered ring) was 69%.
Work on `CC(=O)N[C@@H](CCC(N)=O)C(=O)N[C@@H](CO)C(=O)N[C@@H](CCC(N)=O)C(=O)N[C@@H](CCC(N)=O)C(=O)N[C@H](C(=O)N[C@@H](Cc1ccccc1)C(=O)N[C@@H](CSS/C(=C/Cl)CCOc1ccccc1C(=O)Oc1c(F)c(F)c(F)c(F)c1F)C(=O)N[C@@H](CC(N)=O)C(=O)N[C@@H](CC(C)C)C(=O)N[C@@H](Cc1c[nH]c2ccccc12)C(=O)N[C@@H](CCCNC(=N)N)C(=O)N[C@@H](CC(C)C)C(=O)N[C@@H](CC(C)C)C(=O)N[C@@H](CCCCN)C(=O)N[C@@H](CCC(N)=O)C(=O)N[C@@H](CC(N)=O)C(N)=O)[C@@H](C)O` yielded a ring closure, isolated yield (37-membered ring) of 65%.
`CC(=O)N[C@H](C(=O)N[C@@H](CO)C(=O)N[C@@H](Cc1ccccc1)C(=O)N[C@@H](CCCCN)C(=O)N[C@@H](CCC(N)=O)C(=O)N[C@@H](Cc1ccc(O)cc1)C(=O)N[C@@H](Cc1c[nH]c2ccccc12)C(=O)N[C@@H](CSS/C(=C/Cl)CCOc1ccccc1C(=O)Oc1c(F)c(F)c(F)c(F)c1F)C(=O)N[C@@H](CC(C)C)C(=O)N[C@@H](CC(C)C)C(=O)N[C@@H](CO)C(=O)N[C@@H](CCCNC(=N)N)C(N)=O)[C@@H](C)O` showed a ring closure, isolated yield (28-membered ring) of 82%.
`CC(=O)N[C@@H](CCCCN)C(=O)N[C@@H](C)C(=O)N[C@@H](C)C(=O)N[C@@H](C)C(=O)N[C@@H](CSS/C(=C/Cl)CCC(=O)Oc1c(F)c(F)c(F)c(F)c1F)C(=O)N[C@@H](Cc1ccccc1)C(N)=O` [Ac-Lys-Ala-Ala-Ala-Cys(S-linker 3a-OPfp)-Phe-NH2] gave a ring closure, isolated yield (25-membered ring) of 72%.
Molecule `CC(=O)N[C@@H](CCC(N)=O)C(=O)N[C@@H](CO)C(=O)N[C@@H](CCC(N)=O)C(=O)N[C@@H](CCC(N)=O)C(=O)N[C@H](C(=O)N[C@@H](Cc1ccccc1)C(=O)N[C@@H](CSS/C(=C/Cl)CCCCCC(=O)Oc1c(F)c(F)c(F)c(F)c1F)C(=O)N[C@@H](CC(N)=O)C(=O)N[C@@H](CC(C)C)C(=O)N[C@@H](Cc1c[nH]c2ccccc12)C(=O)N[C@@H](CCCNC(=N)N)C(=O)N[C@@H](CC(C)C)C(=O)N[C@@H](CC(C)C)C(=O)N[C@@H](CCCCN)C(=O)N[C@@H](CCC(N)=O)C(=O)N[C@@H](CC(N)=O)C(N)=O)[C@@H](C)O` has a ring closure, isolated yield (37-membered ring) of 78%.
`CC(=O)N[C@H](C(=O)N[C@@H](CO)C(=O)N[C@@H](Cc1ccccc1)C(=O)N[C@@H](CCCCN)C(=O)N[C@@H](CCC(N)=O)C(=O)N[C@@H](Cc1ccc(O)cc1)C(=O)N[C@@H](Cc1c[nH]c2ccccc12)C(=O)N[C@@H](CSS/C(=C/Cl)c1cccc(C(=O)Oc2c(F)c(F)c(F)c(F)c2F)c1)C(=O)N[C@@H](CC(C)C)C(=O)N[C@@H](CC(C)C)C(=O)N[C@@H](CO)C(=O)N[C@@H](CCCNC(=N)N)C(N)=O)[C@@H](C)O` gave a ring closure, isolated yield (26-membered ring) of 84%.
In the case of `CC(=O)N[C@@H](CCCCN)C(=O)N[C@@H](C)C(=O)N[C@@H](C)C(=O)N[C@@H](C)C(=O)N[C@@H](CSS/C(=C/Cl)CCCC(=O)Oc1c(F)c(F)c(F)c(F)c1F)C(=O)N[C@@H](Cc1ccccc1)C(N)=O` [Ac-Lys-Ala-Ala-Ala-Cys(S-linker 3b-OPfp)-Phe-NH2], the ring closure, isolated yield (26-membered ring) is reported as 76%.
Work on `CC(=O)N[C@@H](CCC(N)=O)C(=O)N[C@@H](CO)C(=O)N[C@@H](CCC(N)=O)C(=O)N[C@@H](CCC(N)=O)C(=O)N[C@H](C(=O)N[C@@H](Cc1ccccc1)C(=O)N[C@@H](CSS/C(=C/Cl)CCCCC(=O)Oc1c(F)c(F)c(F)c(F)c1F)C(=O)N[C@@H](CC(N)=O)C(=O)N[C@@H](CC(C)C)C(=O)N[C@@H](Cc1c[nH]c2ccccc12)C(=O)N[C@@H](CCCNC(=N)N)C(=O)N[C@@H](CC(C)C)C(=O)N[C@@H](CC(C)C)C(=O)N[C@@H](CCCCN)C(=O)N[C@@H](CCC(N)=O)C(=O)N[C@@H](CC(N)=O)C(N)=O)[C@@H](C)O` yielded a ring closure, isolated yield (36-membered ring) of 84%.
Molecule `CC(=O)N[C@H](C(=O)N[C@@H](CO)C(=O)N[C@@H](Cc1ccccc1)C(=O)N[C@@H](CCCCN)C(=O)N[C@@H](CCC(N)=O)C(=O)N[C@@H](Cc1ccc(O)cc1)C(=O)N[C@@H](Cc1c[nH]c2ccccc12)C(=O)N[C@@H](CSS/C(=C/Cl)CCCC(=O)Oc1c(F)c(F)c(F)c(F)c1F)C(=O)N[C@@H](CC(C)C)C(=O)N[C@@H](CC(C)C)C(=O)N[C@@H](CO)C(=O)N[C@@H](CCCNC(=N)N)C(N)=O)[C@@H](C)O` has a ring closure, isolated yield (26-membered ring) of 85%.
For `CC[C@H](C)[C@H](NC(=O)[C@@H]1CCCN1C(=O)[C@H](CSS/C(=C/Cl)COCC(=O)Oc1c(F)c(F)c(F)c(F)c1F)NC(C)=O)C(=O)N[C@@H](CCSC)C(=O)N[C@@H](CCC(=O)O)C(=O)N[C@@H](CC(=O)O)C(=O)N[C@@H](CCCNC(=N)N)C(=O)N[C@@H](CCCCN)C(=O)N1CCC[C@H]1C(N)=O` [Ac-Cys(S-linker 3f-OPfp)-Pro-Ile-Met-Glu-Asp-Arg-Lys-Pro-NH2], the ring closure, isolated yield (35-membered ring) was 75%.
Molecule `CC(=O)N[C@H](C(=O)N[C@@H](CO)C(=O)N[C@@H](Cc1ccccc1)C(=O)N[C@@H](CCCCN)C(=O)N[C@@H](CCC(N)=O)C(=O)N[C@@H](Cc1ccc(O)cc1)C(=O)N[C@@H](Cc1c[nH]c2ccccc12)C(=O)N[C@@H](CSS/C(=C/Cl)CCCCC(=O)Oc1c(F)c(F)c(F)c(F)c1F)C(=O)N[C@@H](CC(C)C)C(=O)N[C@@H](CC(C)C)C(=O)N[C@@H](CO)C(=O)N[C@@H](CCCNC(=N)N)C(N)=O)[C@@H](C)O` has a ring closure, isolated yield (27-membered ring) of 76%.
In the case of `CC(=O)N[C@@H](CCCCN)C(=O)N[C@@H](C)C(=O)N[C@@H](C)C(=O)N[C@@H](C)C(=O)N[C@@H](CSS/C(=C/Cl)c1cccc(C(=O)Oc2c(F)c(F)c(F)c(F)c2F)c1)C(=O)N[C@@H](Cc1ccccc1)C(N)=O` [Ac-Lys-Ala-Ala-Ala-Cys(S-linker 3j-OPfp)-Phe-NH2], the ring closure, isolated yield (26-membered ring) is reported as 72%.
`CC[C@H](C)[C@H](NC(=O)[C@@H]1CCCN1C(=O)[C@H](CSS/C(=C/Cl)CCOc1cccc(C(=O)Oc2c(F)c(F)c(F)c(F)c2F)c1)NC(C)=O)C(=O)N[C@@H](CCSC)C(=O)N[C@@H](CCC(=O)O)C(=O)N[C@@H](CC(=O)O)C(=O)N[C@@H](CCCNC(=N)N)C(=O)N[C@@H](CCCCN)C(=O)N1CCC[C@H]1C(N)=O` [Ac-Cys(S-linker 3k-OPfp)-Pro-Ile-Met-Glu-Asp-Arg-Lys-Pro-NH2] showed a ring closure, isolated yield (38-membered ring) of 72%.
In the case of `CC(=O)N[C@@H](CCC(N)=O)C(=O)N[C@@H](CO)C(=O)N[C@@H](CCC(N)=O)C(=O)N[C@@H](CCC(N)=O)C(=O)N[C@H](C(=O)N[C@@H](Cc1ccccc1)C(=O)N[C@@H](CSS/C(=C/Cl)CCOc1ccc(C(=O)Oc2c(F)c(F)c(F)c(F)c2F)cc1)C(=O)N[C@@H](CC(N)=O)C(=O)N[C@@H](CC(C)C)C(=O)N[C@@H](Cc1c[nH]c2ccccc12)C(=O)N[C@@H](CCCNC(=N)N)C(=O)N[C@@H](CC(C)C)C(=O)N[C@@H](CC(C)C)C(=O)N[C@@H](CCCCN)C(=O)N[C@@H](CCC(N)=O)C(=O)N[C@@H](CC(N)=O)C(N)=O)[C@@H](C)O`, the ring closure, isolated yield (39-membered ring) is reported as 68%.
With `CC[C@H](C)[C@H](NC(=O)[C@@H]1CCCN1C(=O)[C@H](CSS/C(=C/Cl)CCOc1ccc(C(=O)Oc2c(F)c(F)c(F)c(F)c2F)cc1)NC(C)=O)C(=O)N[C@@H](CCSC)C(=O)N[C@@H](CCC(=O)O)C(=O)N[C@@H](CC(=O)O)C(=O)N[C@@H](CCCNC(=N)N)C(=O)N[C@@H](CCCCN)C(=O)N1CCC[C@H]1C(N)=O` [Ac-Cys(S-linker 3m-OPfp)-Pro-Ile-Met-Glu-Asp-Arg-Lys-Pro-NH2] the ring closure, isolated yield (39-membered ring) was 62%.
With `CC(=O)N[C@@H](CCC(N)=O)C(=O)N[C@@H](CO)C(=O)N[C@@H](CCC(N)=O)C(=O)N[C@@H](CCC(N)=O)C(=O)N[C@H](C(=O)N[C@@H](Cc1ccccc1)C(=O)N[C@@H](CSS/C(=C/Cl)CCCCCCCCC(=O)Oc1c(F)c(F)c(F)c(F)c1F)C(=O)N[C@@H](CC(N)=O)C(=O)N[C@@H](CC(C)C)C(=O)N[C@@H](Cc1c[nH]c2ccccc12)C(=O)N[C@@H](CCCNC(=N)N)C(=O)N[C@@H](CC(C)C)C(=O)N[C@@H](CC(C)C)C(=O)N[C@@H](CCCCN)C(=O)N[C@@H](CCC(N)=O)C(=O)N[C@@H](CC(N)=O)C(N)=O)[C@@H](C)O` the ring closure, isolated yield (40-membered ring) was 75%.
For `CC(=O)N[C@@H](CCC(N)=O)C(=O)N[C@@H](CO)C(=O)N[C@@H](CCC(N)=O)C(=O)N[C@@H](CCC(N)=O)C(=O)N[C@H](C(=O)N[C@@H](Cc1ccccc1)C(=O)N[C@@H](CSS/C(=C/Cl)CCC(=O)Oc1c(F)c(F)c(F)c(F)c1F)C(=O)N[C@@H](CC(N)=O)C(=O)N[C@@H](CC(C)C)C(=O)N[C@@H](Cc1c[nH]c2ccccc12)C(=O)N[C@@H](CCCNC(=N)N)C(=O)N[C@@H](CC(C)C)C(=O)N[C@@H](CC(C)C)C(=O)N[C@@H](CCCCN)C(=O)N[C@@H](CCC(N)=O)C(=O)N[C@@H](CC(N)=O)C(N)=O)[C@@H](C)O`, the ring closure, isolated yield (34-membered ring) was 79%.
